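Exposure lasted 48 hours, with cells grown in 96-well plates and compounds tested at five concentrations. At the GI50, growth is halved.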 Active and inactive are the calls of the source. Rule as the data show it: active = GI50 up to about 1.1 µM and inactive = higher.
Legend:
Test in all cases: NCI tumour cell line growth inhibition, 48 h
786-0 = system: 786-0
A498 = system: A498
DU-145 = system: DU-145
EKVX = system: EKVX
HCC 2998 = system: HCC 2998
HL-60 = system: HL-60
HOP-62 = system: HOP-62
HOP-92 = system: HOP-92
IGROV-1 = system: IGROV-1
KM12 = system: KM12
M14 = system: M14
MDA-MB-435 = system: MDA-MB-435
MOLT-4 = system: MOLT-4
Malme-3M = system: Malme-3M
PC-3 = system: PC-3
SK-MEL-28 = system: SK-MEL-28
SR = system: SR
T47D = system: T47D
SNB-75 = system: SNB-75
MCF7 = system: MCF7

Measured: GI50

N#C/C(C(=S)NCc1ccccc1)=C(/N)N1CCCC1
inactive: 786-0 > 100 µM | A498 35.3 µM | DU-145 > 100 µM | EKVX > 100 µM | HCC 2998 > 100 µM | HL-60 > 100 µM | HOP-62 > 100 µM | HOP-92 44.9 µM | IGROV-1 > 100 µM | KM12 > 100 µM | M14 > 100 µM | MDA-MB-435 > 100 µM | MOLT-4 > 100 µM | Malme-3M > 100 µM | PC-3 > 100 µM | SK-MEL-28 > 100 µM | SR > 100 µM | T47D 25.1 µM

COc1cc2c(cc1OC)C(=O)C1(C2)[C@H](c2ccccc2)C2C(=O)c3cc(OC)c(OC)cc3C2[C@H]1c1ccccc1 (stereo not given in full)
inactive: 786-0 > 100 µM | A498 > 100 µM | DU-145 > 100 µM | EKVX > 100 µM | HCC 2998 > 100 µM | HL-60 > 100 µM | HOP-62 > 100 µM | IGROV-1 > 100 µM | KM12 > 100 µM | M14 > 100 µM | MDA-MB-435 > 100 µM | MOLT-4 > 100 µM | Malme-3M > 100 µM | PC-3 > 100 µM | SK-MEL-28 > 100 µM | SNB-75 24.8 µM | SR > 100 µM | T47D 10.5 µM

CC(C)(C)OC(=O)n1c2ccccc2c2c(=O)nc(N3CCCCC3)sc21
inactive: 786-0 > 100 µM | A498 > 100 µM | DU-145 > 100 µM | EKVX > 100 µM | HL-60 > 100 µM | HOP-62 > 100 µM | HOP-92 > 100 µM | IGROV-1 > 100 µM | KM12 > 100 µM | M14 > 100 µM | MDA-MB-435 > 100 µM | MOLT-4 > 100 µM | Malme-3M > 100 µM | PC-3 > 100 µM | SK-MEL-28 > 100 µM | SNB-75 > 100 µM | SR 90.4 µM | T47D > 100 µM

Cn1cc(S(=O)(=O)NC(=O)Nc2ccc(Cl)cc2)c(=O)c2ccc(F)cc21
inactive: 786-0 > 100 µM | A498 > 100 µM | DU-145 > 100 µM | EKVX > 100 µM | HCC 2998 > 100 µM | HL-60 > 100 µM | HOP-62 > 100 µM | HOP-92 > 100 µM | IGROV-1 > 100 µM | KM12 47.6 µM | MDA-MB-435 > 100 µM | MOLT-4 > 100 µM | Malme-3M > 100 µM | PC-3 > 100 µM | SK-MEL-28 > 100 µM | SNB-75 > 100 µM | SR > 100 µM | T47D > 100 µM

CCOC(=O)c1ccc(-n2nnc(C(N)=O)c2O)cc1
inactive: 786-0 > 100 µM | DU-145 > 100 µM | EKVX > 100 µM | HCC 2998 > 100 µM | HOP-62 > 100 µM | IGROV-1 > 100 µM | KM12 > 100 µM | M14 > 100 µM | MCF7 > 100 µM | MDA-MB-435 > 100 µM | MOLT-4 > 100 µM | Malme-3M > 100 µM | PC-3 > 100 µM | SK-MEL-28 > 100 µM | SNB-75 > 100 µM | T47D > 100 µM

O=c1c(C(c2ccc(/C=C/c3ccccc3)cc2)c2c(O)oc3ccccc3c2=O)c(O)oc2ccccc12
inactive: 786-0 24.4 µM | A498 30.5 µM | DU-145 50.8 µM | EKVX 28.6 µM | HCC 2998 23.3 µM | HL-60 49.3 µM | HOP-62 27.8 µM | HOP-92 23.1 µM | IGROV-1 27.3 µM | KM12 23 µM | MDA-MB-435 29 µM | MOLT-4 24.1 µM | Malme-3M 21.6 µM | PC-3 40.2 µM | SK-MEL-28 33.3 µM | SNB-75 19.7 µM | T47D 39.2 µM

— ChEMBL document CHEMBL1201862, “PubChem BioAssay data set” (2004)
